# Reference: PMC5218480 (PLoS ONE, 2017)
# System: MV-4-11 cells
# Assay: Gene expression microarray analysis (Affymetrix PrimeView) and GSEA
# Type: cell-based, human
# Parameters: RFU PODN (11730768_x_at) / Fold change /veh PODN (11730768_x_at) / RFU LINC00158 (11744669_a_at) / Fold change /veh LINC00158 (11744669_a_at) / RFU DUSP10 (11751237_a_at) / Fold change /veh DUSP10 (11751237_a_at) / RFU ID3 (11757404_x_at) / Fold change /veh ID3 (11757404_x_at) / RFU PLEKHG5 (11737974_s_at) / Fold change /veh PLEKHG5 (11737974_s_at) / RFU LRRC4B (11730491_at) / Fold change /veh LRRC4B (11730491_at) / RFU GIMAP4 (11747438_a_at) / Fold change /veh GIMAP4 (11747438_a_at) / RFU KRT8 (11758183_x_at) / Fold change /veh KRT8 (11758183_x_at) / RFU CNN1 (11734310_a_at) / Fold change /veh CNN1 (11734310_a_at) / RFU VPS37D (11726825_at) / Fold change /veh VPS37D (11726825_at) / RFU C10orf10 (11716522_x_at) / Fold change /veh C10orf10 (11716522_x_at) / RFU KIR2DL2 /// KIR2DL4 /// KIR2DL5A /// KIR2DL5B /// KIR2DS1 /// KIR2DS2 /// KIR2DS3 /// KIR2DS4 /// KIR3DL3 /// KIR3DL3 /// KIR3DS1 (11738374_at) / Fold change /veh KIR2DL2 /// KIR2DL4 /// KIR2DL5A /// KIR2DL5B /// KIR2DS1 /// KIR2DS2 /// KIR2DS3 /// KIR2DS4 /// KIR3DL3 /// KIR3DL3 /// KIR3DS1 (11738374_at) / RFU C1QL1 (11718748_at) / Fold change /veh C1QL1 (11718748_at) / RFU TMPRSS4 (11747572_a_at) / Fold change /veh TMPRSS4 (11747572_a_at) / RFU HAMP (11756126_x_at) / Fold change /veh HAMP (11756126_x_at) / RFU RNFT2 (11725882_a_at) / Fold change /veh RNFT2 (11725882_a_at) / RFU NR4A2 (11747474_a_at) / Fold change /veh NR4A2 (11747474_a_at) / RFU ABCC12 (11746883_a_at) / Fold change /veh ABCC12 (11746883_a_at) / RFU TMEM136 (11760407_x_at) / Fold change /veh TMEM136 (11760407_x_at) / RFU CLDN22 /// WWC2 (11732394_at) / Fold change /veh CLDN22 /// WWC2 (11732394_at) / RFU HLA-DPB1 (11760878_x_at) / Fold change /veh HLA-DPB1 (11760878_x_at) / RFU SPINT1 (11716480_a_at) / Fold change /veh SPINT1 (11716480_a_at) / RFU GAP43 (11754022_s_at) / Fold change /veh GAP43 (11754022_s_at) / RFU A4GNT (11735810_at) / Fold change /veh A4GNT (11735810_at) / RFU PRB3 (11715151_x_at) / Fold change /veh PRB3 (11715151_x_at) / RFU TUBB4B (11761932_at) / Fold change /veh TUBB4B (11761932_at) / RFU CAPN14 (11732068_a_at) / Fold change /veh CAPN14 (11732068_a_at) / RFU TMCC2 (11721928_a_at) / Fold change /veh TMCC2 (11721928_a_at) / RFU IRGQ (11745062_a_at) / Fold change /veh IRGQ (11745062_a_at) / RFU FAM174B (11720279_a_at) / Fold change /veh FAM174B (11720279_a_at) / RFU TMPRSS4 (11748680_a_at) / Fold change /veh TMPRSS4 (11748680_a_at) / RFU FAM212B (11763350_a_at) / Fold change /veh FAM212B (11763350_a_at) / RFU PLEKHG5 (11743358_a_at) / Fold change /veh PLEKHG5 (11743358_a_at) / RFU ZSCAN30 (11745921_a_at) / Fold change /veh ZSCAN30 (11745921_a_at) / RFU CMKLR1 (11741424_a_at) / Fold change /veh CMKLR1 (11741424_a_at) / RFU LOC101060620 /// MAPK8IP1 (11723275_at) / Fold change /veh LOC101060620 /// MAPK8IP1 (11723275_at) / RFU SPTSSB (11747773_x_at) / Fold change /veh SPTSSB (11747773_x_at) / RFU PRSS12 (11739890_at) / Fold change /veh PRSS12 (11739890_at) / RFU BIN1 (11741810_x_at) / Fold change /veh BIN1 (11741810_x_at) / RFU WNT11 (11732464_a_at) / Fold change /veh WNT11 (11732464_a_at) / RFU C10orf10 (11716521_a_at) / Fold change /veh C10orf10 (11716521_a_at) / RFU C5orf56 (11738089_at) / Fold change /veh C5orf56 (11738089_at) / RFU CYB561 (11721691_x_at) / Fold change /veh CYB561 (11721691_x_at) / RFU ANKRD19P (11752326_a_at) / Fold change /veh ANKRD19P (11752326_a_at) / RFU OR2T12 /// OR2T33 /// OR2T8 (11738714_s_at) / Fold change /veh OR2T12 /// OR2T33 /// OR2T8 (11738714_s_at) / RFU VCAN (11748164_a_at) / Fold change /veh VCAN (11748164_a_at) / RFU JSRP1 (11732532_at) / Fold change /veh JSRP1 (11732532_at) / RFU KRTAP10-11 (11738290_x_at) / Fold change /veh KRTAP10-11 (11738290_x_at) / RFU MYO3A (11730013_a_at) / Fold change /veh MYO3A (11730013_a_at) / RFU EBF3 (11725865_a_at) / Fold change /veh EBF3 (11725865_a_at) / RFU CAMK2N1 (11719241_x_at) / Fold change /veh CAMK2N1 (11719241_x_at) / RFU C5orf56 (11738088_a_at) / Fold change /veh C5orf56 (11738088_a_at) / RFU OLFML3 (11715873_a_at) / Fold change /veh OLFML3 (11715873_a_at) / RFU LOC100653217 /// NTM (11731650_a_at) / Fold change /veh LOC100653217 /// NTM (11731650_a_at) / RFU MAPK11 (11762145_a_at) / Fold change /veh MAPK11 (11762145_a_at) / RFU FIZ1 (11724087_x_at) / Fold change /veh FIZ1 (11724087_x_at) / RFU OASL (11726364_x_at) / Fold change /veh OASL (11726364_x_at) / RFU SOX15 (11748057_x_at) / Fold change /veh SOX15 (11748057_x_at) / RFU CD79A (11719716_a_at) / Fold change /veh CD79A (11719716_a_at) / RFU HIST1H1D (11736915_at) / Fold change /veh HIST1H1D (11736915_at) / RFU CASKIN2 (11723855_a_at) / Fold change /veh CASKIN2 (11723855_a_at) / RFU LOC730098 (11760151_x_at) / Fold change /veh LOC730098 (11760151_x_at) / RFU OR4N2 (11742367_at) / Fold change /veh OR4N2 (11742367_at) / RFU PRRT2 (11749266_a_at) / Fold change /veh PRRT2 (11749266_a_at) / RFU SNX32 (11753110_a_at) / Fold change /veh SNX32 (11753110_a_at) / RFU CDHR5 (11726645_a_at) / Fold change /veh CDHR5 (11726645_a_at) / RFU RCAN1 (11760418_a_at) / Fold change /veh RCAN1 (11760418_a_at) / RFU FAM167A (11723789_a_at) / Fold change /veh FAM167A (11723789_a_at) / RFU FAM26E (11764081_at) / Fold change /veh FAM26E (11764081_at) / RFU ISYNA1 (11749810_s_at) / Fold change /veh ISYNA1 (11749810_s_at) / RFU ACY1 (11761880_at) / Fold change /veh ACY1 (11761880_at) / RFU 11764098_at / Fold change /veh 11764098_at / RFU SAMD14 (11745864_x_at) / Fold change /veh SAMD14 (11745864_x_at) / RFU NPB (11741838_a_at) / Fold change /veh NPB (11741838_a_at) / RFU TMPRSS6 (11731388_a_at) / Fold change /veh TMPRSS6 (11731388_a_at) / RFU KRTAP10-2 (11738614_at) / Fold change /veh KRTAP10-2 (11738614_at) / RFU ARHGAP8 /// PRR5-ARHGAP8 (11727945_x_at) / Fold change /veh ARHGAP8 /// PRR5-ARHGAP8 (11727945_x_at) / RFU KRTAP5-7 /// NADSYN1 (11734609_at) / Fold change /veh KRTAP5-7 /// NADSYN1 (11734609_at) / RFU RASL12 (11751679_a_at) / Fold change /veh RASL12 (11751679_a_at) / RFU CDKN2B (11736163_a_at) / Fold change /veh CDKN2B (11736163_a_at) / RFU PRF1 (11729649_at) / Fold change /veh PRF1 (11729649_at) / RFU, ZNF638 /// ZNF638-IT1 / Fold change vs veh, ZNF638 /// ZNF638-IT1 / RFU, PANK3 / Fold change vs veh, PANK3 / RFU, SH3YL1 / Fold change vs veh, SH3YL1 / RFU, ZEB2 / Fold change vs veh, ZEB2 / RFU, NRIP1 / Fold change vs veh, NRIP1 / RFU, PTTG1IP / Fold change vs veh, PTTG1IP / RFU, CAPN2 / Fold change vs veh, CAPN2 / RFU, MED14 / Fold change vs veh, MED14 / RFU, SNORA58 / Fold change vs veh, SNORA58 / RFU, C1orf63 / Fold change vs veh, C1orf63 / RFU, LRRFIP1 / Fold change vs veh, LRRFIP1 / RFU, NDUFAF7 / Fold change vs veh, NDUFAF7 / RFU, SLC12A2 / Fold change vs veh, SLC12A2 / RFU, IBTK / Fold change vs veh, IBTK / RFU, ESF1 / Fold change vs veh, ESF1 / Fold change vs veh, TMEM50B / RFU, TAOK1 / Fold change vs veh, TAOK1 / RFU, ACBD3 / Fold change vs veh, ACBD3 / RFU, TMA16 / Fold change vs veh, TMA16 / RFU, RWDD3 / Fold change vs veh, RWDD3 / RFU, BCAT1 / Fold change vs veh, BCAT1 / RFU, EDEM3 / Fold change vs veh, EDEM3 / RFU, TMEM33 / Fold change vs veh, TMEM33 / RFU, WDR75 / Fold change vs veh, WDR75 / RFU, AHCTF1 / Fold change vs veh, AHCTF1 / RFU, TFRC / Fold change vs veh, TFRC / RFU, ZDHHC17 / Fold change vs veh, ZDHHC17 / RFU, NOM1 / Fold change vs veh, NOM1 / RFU, ARL8B / Fold change vs veh, ARL8B / RFU, ZBTB11 / Fold change vs veh, ZBTB11 / RFU, TAMM41 / Fold change vs veh, TAMM41 / RFU, KIAA1704 /// LOC100996395 / Fold change vs veh, KIAA1704 /// LOC100996395 / RFU, ING1 / Fold change vs veh, ING1 / RFU, TRMT61B / Fold change vs veh, TRMT61B / RFU, FUBP3 / Fold change vs veh, FUBP3 / RFU, TP53 / Fold change vs veh, TP53 / RFU, TNKS2 / Fold change vs veh, TNKS2 / RFU, ZFP14 / Fold change vs veh, ZFP14 / RFU, ACTR2 / Fold change vs veh, ACTR2 / RFU, PPP3R1 / Fold change vs veh, PPP3R1 / RFU, PIK3R1 / Fold change vs veh, PIK3R1 / RFU, HNRNPA1 / Fold change vs veh, HNRNPA1 / RFU, RNF170 / Fold change vs veh, RNF170 / RFU, ZNF28 / Fold change vs veh, ZNF28 / RFU, RNGTT / Fold change vs veh, RNGTT / RFU, OGT / Fold change vs veh, OGT / RFU, BRD1 / Fold change vs veh, BRD1 / RFU, MARS / Fold change vs veh, MARS / RFU, ZNF655 / Fold change vs veh, ZNF655 / RFU, FAHD1 / Fold change vs veh, FAHD1 / RFU, BDP1 / Fold change vs veh, BDP1 / RFU, LRRCC1 / Fold change vs veh, LRRCC1 / RFU, ARID1A / Fold change vs veh, ARID1A / RFU, ZNF146 / Fold change vs veh, ZNF146 / RFU, ZNF330 / Fold change vs veh, ZNF330 / RFU, GPN3 / Fold change vs veh, GPN3 / RFU, C9orf123 / Fold change vs veh, C9orf123 / RFU, N4BP2L2 / Fold change vs veh, N4BP2L2 / RFU, ARFIP1 / Fold change vs veh, ARFIP1 / RFU, FAM179B / Fold change vs veh, FAM179B / RFU, BCL10 / Fold change vs veh, BCL10 / RFU, UHRF1BP1L / Fold change vs veh, UHRF1BP1L / RFU, BET1 / Fold change vs veh, BET1 / RFU, CNOT2 / Fold change vs veh, CNOT2 / RFU, ZNF268 / Fold change vs veh, ZNF268 / Fold change vs veh, ZNF507 / RFU, DGCR2 / Fold change vs veh, DGCR2 / RFU, WDSUB1 / Fold change vs veh, WDSUB1 / Fold change vs veh, HSP90B1 /// MIR3652 / RFU, ADSS / Fold change vs veh, ADSS / RFU, GK / Fold change vs veh, GK / RFU, ZNF148 / Fold change vs veh, ZNF148 / RFU, TAF9 / Fold change vs veh, TAF9 / RFU, SLC1A5 / Fold change vs veh, SLC1A5 / RFU, SLMO2 / Fold change vs veh, SLMO2 / RFU, ABCC4 / Fold change vs veh, ABCC4 / RFU, LOC101060439 /// RAP1B / Fold change vs veh, LOC101060439 /// RAP1B / RFU, RFX7 / Fold change vs veh, RFX7 / RFU, GTPBP10 / Fold change vs veh, GTPBP10 / RFU, CNEP1R1 / Fold change vs veh, CNEP1R1 / RFU, BIVM-ERCC5 /// ERCC5 / Fold change vs veh, BIVM-ERCC5 /// ERCC5 / RFU, ILF3 / Fold change vs veh, ILF3 / RFU 11762660_at / Fold change /veh 11762660_at / RFU VCAN (11757783_s_at) / Fold change /veh VCAN (11757783_s_at) / RFU DDX43 (11728927_at) / Fold change /veh DDX43 (11728927_at) / RFU KRT8 (11758188_x_at) / Fold change /veh KRT8 (11758188_x_at) / RFU NKD1 (11759106_at) / Fold change /veh NKD1 (11759106_at) / RFU SRD5A1 (11742802_a_at) / Fold change /veh SRD5A1 (11742802_a_at) / RFU TPSAB1 /// TPSB2 (11721975_s_at) / Fold change /veh TPSAB1 /// TPSB2 (11721975_s_at) / RFU GSTM3 (11746129_a_at) / Fold change /veh GSTM3 (11746129_a_at) / RFU IL23R (11737362_x_at) / Fold change /veh IL23R (11737362_x_at) / RFU TMEM51 (11727254_a_at) / Fold change /veh TMEM51 (11727254_a_at) / RFU PIWIL2 (11732686_x_at) / Fold change /veh PIWIL2 (11732686_x_at) / RFU ORM1 (11744905_x_at) / Fold change /veh ORM1 (11744905_x_at) / RFU CCDC152 (11743942_at) / Fold change /veh CCDC152 (11743942_at) / RFU ECM1 (11717891_a_at) / Fold change /veh ECM1 (11717891_a_at) / RFU IL23R (11748794_a_at) / Fold change /veh IL23R (11748794_a_at) / RFU TNFAIP8L3 (11732012_x_at) / Fold change /veh TNFAIP8L3 (11732012_x_at) / RFU MBOAT4 (11741988_at) / Fold change /veh MBOAT4 (11741988_at) / RFU 11764193_at / Fold change /veh 11764193_at / RFU TMEM53 (11763286_at) / Fold change /veh TMEM53 (11763286_at) / RFU MAGEB2 (11727129_at) / Fold change /veh MAGEB2 (11727129_at) / RFU TMEM200A (11744735_a_at) / Fold change /veh TMEM200A (11744735_a_at) / RFU CCDC152 (11751479_a_at) / Fold change /veh CCDC152 (11751479_a_at) / RFU FAM211A (11726209_a_at) / Fold change /veh FAM211A (11726209_a_at) / RFU RGS16 (11746705_a_at) / Fold change /veh RGS16 (11746705_a_at) / RFU VCAN (11755009_s_at) / Fold change /veh VCAN (11755009_s_at) / RFU RHOB (11743442_s_at) / Fold change /veh RHOB (11743442_s_at) / RFU RGS16 (11720943_a_at) / Fold change /veh RGS16 (11720943_a_at) / RFU RGS16 (11720944_at) / Fold change /veh RGS16 (11720944_at) / RFU, VPS4B / Fold change vs veh, VPS4B / RFU, CREB1 / Fold change vs veh, CREB1 / RFU, DNAJC13 / Fold change vs veh, DNAJC13 / RFU, GNAQ / Fold change vs veh, GNAQ / RFU, CDK5R1 / Fold change vs veh, CDK5R1 / RFU, ZRANB3 / Fold change vs veh, ZRANB3 / RFU, CUL4A / Fold change vs veh, CUL4A / RFU, CCNY / Fold change vs veh, CCNY / RFU, UFL1 / Fold change vs veh, UFL1 / RFU, COG3 / Fold change vs veh, COG3 / RFU, DIAPH2 / Fold change vs veh, DIAPH2 / RFU, SKA2 / Fold change vs veh, SKA2 / RFU, AFF3 / Fold change vs veh, AFF3 / RFU, LMF1 / Fold change vs veh, LMF1 / RFU, IPO11 / Fold change vs veh, IPO11 / RFU, DFFB / Fold change vs veh, DFFB / RFU, FOXP1 / Fold change vs veh, FOXP1 / RFU, CARD8 / Fold change vs veh, CARD8 / RFU, STRN3 / Fold change vs veh, STRN3 / RFU, ADK / Fold change vs veh, ADK / RFU, RASSF2 / Fold change vs veh, RASSF2 / RFU, WIPF1 / Fold change vs veh, WIPF1 / RFU, LARP1B / Fold change vs veh, LARP1B / RFU, RASA1 / Fold change vs veh, RASA1 / RFU, RB1 / Fold change vs veh, RB1 / RFU, PPFIA1 / Fold change vs veh, PPFIA1 / RFU, MAT2A / Fold change vs veh, MAT2A / RFU, CCT5 / Fold change vs veh, CCT5 / RFU, WDR92 / Fold change vs veh, WDR92 / RFU, CUX1 / Fold change vs veh, CUX1 / RFU, TTC7A / Fold change vs veh, TTC7A / RFU, TMEM135 / Fold change vs veh, TMEM135 / RFU, DEPTOR / Fold change vs veh, DEPTOR / RFU, CPM / Fold change vs veh, CPM / RFU, DNAJB6 / Fold change vs veh, DNAJB6 / RFU, CACNA2D3 / Fold change vs veh, CACNA2D3 / RFU, DTX4 / Fold change vs veh, DTX4 / RFU, TFCP2 / Fold change vs veh, TFCP2 / RFU, GMCL1 /// GMCL1P1 / Fold change vs veh, GMCL1 /// GMCL1P1 / RFU, AEBP2 / Fold change vs veh, AEBP2 / RFU, SNHG1 /// SNORD22 /// SNORD25 /// SNORD26 /// SNORD27 /// SNORD28 /// SNORD29 /// SNORD31 / Fold change vs veh, SNHG1 /// SNORD22 /// SNORD25 /// SNORD26 /// SNORD27 /// SNORD28 /// SNORD29 /// SNORD31 / Fold change (Aza/veh), C12orf56 (ProbeSet 11735607_a_at) / Fold change (ACY-1035/veh), C12orf56 (ProbeSet 11735607_a_at) / Fold change (Aza/veh), FGFR1OP (ProbeSet 11751329_s_at) / Fold change (ACY-1035/veh), FGFR1OP (ProbeSet 11751329_s_at) / Fold change (Aza/veh), VPS36 (ProbeSet 11739960_a_at) / Fold change (ACY-1035/veh), VPS36 (ProbeSet 11739960_a_at) / RFU SYPL1 (11715823_x_at) / Fold change /veh SYPL1 (11715823_x_at) / RFU IGFBP7 (11715501_s_at) / Fold change /veh IGFBP7 (11715501_s_at) / RFU REEP3 (11722064_at) / Fold change /veh REEP3 (11722064_at) / RFU IGLL1 (11728026_x_at) / Fold change /veh IGLL1 (11728026_x_at): dose or concentration left out as unconfirmed
# Details: MV-4-11 cells, 48 hours
compound,measurement,value
Nc1ccc(-c2cccs2)cc1NC(=O)c1ccc2c(c1)cc(C1CC1)n2CCN1CCOCC1 [ACY-1035],Fold change /veh NKD1 (11759106_at),1.08
